Measurements published in ChEMBL document CHEMBL1201862, “PubChem BioAssay data set” (2004).
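Grown in 96-well plates, cells were treated for 48 hours with each compound at five concentrations. Insufficient inhibition: endpoint recorded as highest concentration tested. GI50 marks 50% less growth.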 The source made the active and inactive calls. Rule as the data show it: active = GI50 up to about 1.1 µM and inactive = higher.

Legend:
Assay in all cases: NCI tumour cell line growth inhibition, 48 h
LXFL 529 = test system: LXFL 529
HCT-15 = test system: HCT-15
SF-268 = test system: SF-268
CAKI-1 = test system: CAKI-1
SNB-75 = test system: SNB-75
SK-MEL-2 = test system: SK-MEL-2
HCT-116 = test system: HCT-116
KM-20L2 = test system: KM-20L2
SK-MEL-28 = test system: SK-MEL-28
M19-MEL = test system: M19-MEL
MOLT-4 = test system: MOLT-4
KM12 = test system: KM12
CCRF-CEM = test system: CCRF-CEM
DLD-1 = test system: DLD-1
TK-10 = test system: TK-10
HOP-92 = test system: HOP-92
UO-31 = test system: UO-31
OVCAR-8 = test system: OVCAR-8
K562 = test system: K562
SK-OV-3 = test system: SK-OV-3
NCI-H522 = test system: NCI-H522
SW-620 = test system: SW-620
COLO 205 = test system: COLO 205
NCI-H460 = test system: NCI-H460
SF-295 = test system: SF-295
RPMI-8226 = test system: RPMI-8226
786-0 = test system: 786-0
U-251 = test system: U-251
OVCAR-4 = test system: OVCAR-4
OVCAR-3 = test system: OVCAR-3
HOP-62 = test system: HOP-62
EKVX = test system: EKVX
UACC-62 = test system: UACC-62
Malme-3M = test system: Malme-3M
SF-539 = test system: SF-539
HOP-18 = test system: HOP-18
SR = test system: SR
IGROV-1 = test system: IGROV-1
ACHN = test system: ACHN
DMS-114 = test system: DMS-114
SK-MEL-5 = test system: SK-MEL-5
A549 = test system: A549
RXF 393 = test system: RXF 393
HT-29 = test system: HT-29
M14 = test system: M14
UACC-257 = test system: UACC-257
SNB-19 = test system: SNB-19
NCI-H226 = test system: NCI-H226
NCI-H23 = test system: NCI-H23
SN12C = test system: SN12C
HL-60 = test system: HL-60

SMILES: CC(C)[C@H]1CO[C@@H]2O[C@H](C)CC(=O)N21
- GI50 (LXFL 529): > 100 µM (inactive)
- GI50 (HCT-15): > 100 µM
- GI50 (SF-268): > 100 µM (inactive)
- GI50 (CAKI-1): > 100 µM (inactive)
- GI50 (SNB-75): > 100 µM (inactive)
- GI50 (SK-MEL-2): > 100 µM (inactive)
- GI50 (HCT-116): > 100 µM (inactive)
- GI50 (KM-20L2): > 100 µM (inactive)
- GI50 (SK-MEL-28): > 100 µM (inactive)
- GI50 (M19-MEL): > 100 µM (inactive)
- GI50 (MOLT-4): > 100 µM (inactive)
- GI50 (KM12): > 100 µM (inactive)
- GI50 (CCRF-CEM): > 100 µM (inactive)
- GI50 (DLD-1): > 100 µM (inactive)
- GI50 (TK-10): > 100 µM (inactive)
- GI50 (HOP-92): > 100 µM (inactive)
- GI50 (UO-31): > 100 µM (inactive)
- GI50 (OVCAR-8): > 100 µM (inactive)
- GI50 (K562): > 100 µM (inactive)
- GI50 (SK-OV-3): > 100 µM (inactive)
- GI50 (NCI-H522): > 100 µM (inactive)
- GI50 (SW-620): > 100 µM (inactive)
- GI50 (COLO 205): > 100 µM (inactive)
- GI50 (NCI-H460): > 100 µM (inactive)
- GI50 (SF-295): > 100 µM (inactive)
- GI50 (RPMI-8226): > 100 µM (inactive)
- GI50 (786-0): > 100 µM (inactive)
- GI50 (U-251): > 100 µM (inactive)
- GI50 (OVCAR-4): > 100 µM (inactive)
- GI50 (OVCAR-3): > 100 µM (inactive)
- GI50 (HOP-62): > 100 µM (inactive)
- GI50 (EKVX): > 100 µM (inactive)
- GI50 (UACC-62): > 100 µM (inactive)
- GI50 (Malme-3M): > 100 µM (inactive)
- GI50 (SF-539): > 100 µM (inactive)
- GI50 (HOP-18): > 100 µM (inactive)
- GI50 (SR): > 100 µM (inactive)
- GI50 (IGROV-1): > 100 µM (inactive)
- GI50 (ACHN): > 100 µM (inactive)
- GI50 (DMS-114): > 100 µM (inactive)
- GI50 (SK-MEL-5): > 100 µM (inactive)
- GI50 (A549): > 100 µM (inactive)
- GI50 (RXF 393): > 100 µM (inactive)
- GI50 (HT-29): > 100 µM (inactive)
- GI50 (M14): > 100 µM (inactive)
- GI50 (UACC-257): > 100 µM (inactive)
- GI50 (SNB-19): > 100 µM (inactive)
- GI50 (NCI-H226): > 100 µM (inactive)
- GI50 (NCI-H23): > 100 µM (inactive)
- GI50 (SN12C): > 100 µM (inactive)
- GI50 (HL-60): > 100 µM (inactive)
